Patent US10889825B2, “Compositions and methods thereof for down-regulation of genes following oral delivery of an RNAi molecule bioencapsulated within plant cells” (THE TRUSTEES OF THE UNIVERSITY OF PENNSYLVANIA, priority 2015, dated 2021)

Tested on: Helicoverpa armigera
Assay: gossypol tolerance test, larvae on artificial diet supplemented with gossypol
Assay type: in vivo
Conditions: third-instar larvae
Procedure: Cotton bollworm (Helicoverpa armigera) eggs were purchased from Benzon research laboratory. See the world wide web at benzonresearch.com/insectlist.htm. They were hatched at 25° C. and all the larvae were fed with the artificial diet (Southland Products Incorporated on the world wide web at tecinfo.com/˜southland/. All dishes were kept at 25° C. on a 14-h-day/10-h-night cycle. For the gossypol tolerance experiments, third instars larvae were transferred to the artificial diet supplemented with gossypol (0-4 mg) for 4 d and the increase in weight was recorded.
Gossypol and related sesquiterpene biosynthesized in cotton are toxic to many organisms. However, most Helicoverpa insects resist gossypol because the P450 monooxygenases in the midgut of these insects permit them to tolerate the gossypol. Therefore, in order to suppress P450 gene, two step insect bioassay was conducted. In the first step, third-instar larvae of Helicoverpa armigera were fed on P450: RNAi expressed leaves for four days. Then, all these larvae were transferred to the following diet or leaves: artificial diet with 3 mg/g gossypol or without gossypol; cotton leaves with glands/glandless and wild-type tobacco leaves. Addition of gossypol in the artificial diet or in leaves affects the growth and development of the larvae (FIG. 3). […]

Cc1cc2c(C(C)C)c(O)c(O)c(C=O)c2c(O)c1-c1c(C)cc2c(C(C)C)c(O)c(O)c(C=O)c2c1O [gossypol]
net weight increase of larvae (higher concentrations (3-4 mg/g) of gossypol diet): 15.1 to 55.4 mg
weight increases of larvae (low concentration gossypol diet (1-2 mg/g)): 163 to 190 mg
